Reference: patent US20240285543A1, “NANOPARTICLE-MEDIATED ENHANCEMENT OF IMMUNOTHERAPY TO PROMOTE FERROPTOSIS-INDUCED CYTOTOXICITY AND ANTITUMOR IMMUNE RESPONSES” (Memorial Sloan-Kettering Cancer Center, priority 2021, published 2024)
pIC50: −log10 of the molar value.

Experiments:
PSMA [1] = biological target: T1, PSMA (Homo sapiens, UniProt Q04609)
Excerpt: Table printed on a drawing sheet, FIG. 25
(§1) Head of the field: IC50 (M)
The patent's description of the figure: FIG. 25 show PSMA-targeting peptide-linkers, according to embodiments of the present disclosure.
Where the first naming reader finds the target: head: PSMA-Targeting Peptide-Linker Sequences
Target sequence in this assay (Q04609 whole entry, looked up): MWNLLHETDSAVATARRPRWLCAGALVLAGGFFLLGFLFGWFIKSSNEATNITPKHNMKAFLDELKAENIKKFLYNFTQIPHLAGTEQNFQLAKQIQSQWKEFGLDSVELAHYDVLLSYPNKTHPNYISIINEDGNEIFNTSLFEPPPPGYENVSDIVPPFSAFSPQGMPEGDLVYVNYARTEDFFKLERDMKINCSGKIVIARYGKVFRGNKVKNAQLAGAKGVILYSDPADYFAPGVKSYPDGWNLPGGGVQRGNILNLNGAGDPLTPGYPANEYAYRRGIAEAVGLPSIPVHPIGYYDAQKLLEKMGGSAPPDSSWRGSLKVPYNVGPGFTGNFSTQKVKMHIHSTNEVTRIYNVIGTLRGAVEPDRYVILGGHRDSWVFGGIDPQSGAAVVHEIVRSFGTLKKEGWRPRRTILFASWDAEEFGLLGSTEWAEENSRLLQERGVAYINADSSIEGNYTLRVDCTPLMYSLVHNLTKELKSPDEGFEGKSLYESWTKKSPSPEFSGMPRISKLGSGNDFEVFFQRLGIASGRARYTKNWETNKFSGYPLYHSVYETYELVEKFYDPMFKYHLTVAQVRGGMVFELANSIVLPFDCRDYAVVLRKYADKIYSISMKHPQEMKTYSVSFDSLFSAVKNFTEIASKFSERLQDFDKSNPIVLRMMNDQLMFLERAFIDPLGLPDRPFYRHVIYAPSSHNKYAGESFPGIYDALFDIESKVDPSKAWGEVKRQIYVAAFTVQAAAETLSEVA

PSMA [2] = biological target: T1, PSMA; set-up: compiled for 40 patients treated with ^225Ac-PSMA-617; host or cells: patients (mCRPC); settings: cited from earlier work; for clinical response: mCRPC patients
Target sequence in this assay (Q04609 whole entry): as the sequence (Q04609 whole entry, looked up) above

B16-F10 tumors = assay: B16-F10 melanoma tumor growth inhibition and TME analysis; type: in vivo, mice
Excerpt: FIGS. 15A-15C show C′ dots inhibit melanoma tumor growth via ferroptotic induction and pro-inflammatory responses. […] Data represents analyses of n=4 mice per group, mean±s.e.m. *p<0.05 (non-parametric 2-way ANOVA).
Data represent mean±s.e.m. **** saline-PD1: P=0.0001; **** saline-alpha-MSH: P=0.0001; **** saline-(anti-PD1+alpha-MSH): P<0.0001; **PD1-(anti-PD1+alpha-MSH): P=0.0017; **alpha-MSH-(anti-PD1+alpha-MSH): P=0.0017.
The present example describes a statistically significant and marked drop in tumor volume (red curve) to nearly 65% of control values (blue curve) following a multiple, high-dose (60 μM) regimen of i.v.-injected αMSH-PEG-C′ dots in B16-F10 mice when tumors reached […]. […] To evaluate the extent of immune cell infiltration, IHC was performed to assess for Iba1, CD3, CD4, and CD8 expression, with results graphically depicted in FIG. 15C. […]
Particles have been either injected as multiple doses (n=3) alone or concomitantly with either the first three doses (“early”, on days 7, 10, and 13) or the final three doses (“late”, on days 16, 19, and 22) of anti-PD-1 (250 μg/mouse), anti-CTLA4 (100 μg/mouse), or anti-PD-1+anti-CTLA4 antibody regimens (see FIG. 12). […] It can then be determined whether the order of administration of these agents is important in terms of modulating overall treatment responses.

MC1-R = assay: IC50 (M)
Excerpt: Table printed on a drawing sheet, FIG. 13F
as §1
The patent's description of the figure: FIGS. 13A-13F show characterization of a lead alpha-MSH peptide-linker conjugate. Structural schematics of representative alpha-MSH peptides. […] FIG. 13B, FIG. 13C each show second generation peptides with reduced hydrophobicity containing PEG2 and one Ahx spacer: (FIG. 13B) PEG2-Ahx-d-Lys-alpha-MSH (yellow closed circle in FIG. 13E); and (FIG. 13C) PEG2-d-Lys-Ahx-alpha-MSH (green triangle in FIG. 13E). […] FIG. 13E and FIG. 13F show IC50 determination of MC1-R targeting Re-cyclized and lactam-cyclized peptides.
First copying reader's note: IC50 values belong to the competitive binding curves of FIG. 13E on the same sheet.
Where the first naming reader finds the target: head: MC1-R-Targeting Peptide Linker Sequences

Work on `O=C(O)CC[C@H](NC(=O)N[C@@H](CCCCNC(=O)[C@H](Cc1ccc2ccccc2c1)NC(=O)[C@H]1CC[C@H](CNC(=O)CN2CCN(CC(=O)O)CCN(CC(=O)O)CCN(CC(=O)O)CC2)CC1)C(=O)O)C(=O)O` [PSMA-617, hooc-Lys(-2Nal-Tran-DOTA)-'CO'-Glu-cooh] yielded a pIC50 (PSMA [1]) of 7.68.
With `CC(=O)N[C@@H](CS)C(=O)NCCCCCC(=O)NCCCCCC(=O)N[C@H](CCCCN)C(=O)NCCCCCC(=O)NCCCC[C@H](NC(=O)N[C@@H](CCC(=O)O)C(=O)O)C(=O)O` [Prototype PSMAi, hooc-Lys(-Ahx-dLys(-nh2)-(Ahx)2-Cys-Ac)-'CO'-Glu-cooh] the pIC50 (PSMA [1]) was 8.35.
In the case of `O=C([O-])CN1CCN(CC(=O)[O-])CCN(CC(=O)NCC2CCC(C(=O)N[C@@H](Cc3ccc4ccccc4c3)C(=O)NCCCC[C@H](NC(=O)N[C@@H](CCC(=O)O)C(=O)O)C(=O)O)CC2)CCN(CC(=O)[O-])CC1.[177Lu+3]` (stereo partly shown) [^177Lu-PSMA-617], the clinical response (PSMA [2]) is listed as “high response rate”.
In the case of `O=C([O-])CC[C@H](NC(=O)N[C@@H](CCCCNC(=O)[C@H](Cc1ccc2ccccc2c1)NC(=O)[C@H]1CC[C@H](CNC(=O)CN2CCN(CC(=O)[O-])CCN(CC(=O)[O-])CCN(CC(=O)[O-])CC2)CC1)C(=O)[O-])C(=O)[O-].[225Ac].[H+].[H+].[H+]` [^225Ac-PSMA-617], the salivary gland toxicity (PSMA [2]; 40 patients) is given as “frequent occurrence of severe xerostomia”, the “patients who discontinued treatment due to xerostomia” value (PSMA [2]; clinical trial) is given as about 23% and the clinical response (PSMA [2]) is given as “remarkable results”.
In the case of `Clc1cccc(CN=C2Nc3ccccc3NC23CCNCC3)c1` [liproxstatin-1], the “H&E staining of tumor tissue” value (B16-F10 tumors; after final dose) was “reversed” and the “effect of i.p. liproxstatin-1 on particle-induced tumor volume drop” value (B16-F10 tumors; mouse, in vivo, ip) was “substantially attenuated”.
For “Ac-Cys-(Ahx)2-dLys-Re(CCMSH) [Prototype αMSH]”, the pIC50 (MC1-R) was 8.15.
In the case of “Ac-Cys-PEG2-dLys-Ahx-Nle-Re(CCMSH) [2nd gen αMSH (#2)]”, the pIC50 (MC1-R) was 7.15.
